Assay results as given in US7425433B2, “Carboxylic acid reductase polypeptide, nucleotide sequence encoding same and methods of use” (priority 2003, dated 2008).
Read-outs that look alike come from different tables or passages of the source.

Experiments:
[1] = target: T1, carboxylic acid reductase (CAR) (Nocardia iowensis, UniProt Q6RKB1, L218S); type: biochemical, Nocardia sp. NRRL 5646; conditions: for Km: cofactors of purified HAT-CAR, Cleland's kinetics program; for Specific activity: 25° C.
T1 construct: made in house; host or cells: E. coli BL21-CodonPlus(DE3)-RP carrying pHAT-305
Protocol: Enzyme assay. The standard reaction mixture contained 1 mM ATP, 0.15 mM NADPH, 5 mM sodium benzoate, 10 mM MgCl2 and enzyme in 0.05 M Tris buffer (pH 7.5) containing 1 mM EDTA, 1 mM DTT and 10% glycerol (vol/vol), in a final volume of 1.4 ml. The reference cuvette contained all components except benzoate. Reactions were initiated by adding enzyme, and were monitored by recording the absorption decrease at 340 nm at 25° C. with a Shimadzu UV-2010PC scanning spectrophotometer. One unit of the enzyme was defined as the amount of enzyme that catalyzed the reduction of 1 µmol of benzoate to benzaldehyde.min^−1 under standard assay condition. Protein concentrations were measured by the Bradford protein microassay (4) with bovine serum albumin as the standard.

[2] = test system: E. coli BL21-CodonPlus(DE3)-RP carrying pHAT-305; assay: In vivo whole cell reactions; type: cell-based; conditions: IPTG-induced cultures, 1 mg/ml substrate acid
Protocol: In vivo whole cell reactions were typically conducted with 100 ml cultures of E. coli BL21-CodonPlus®(DE3)-RP carrying pHAT-305. Cultures were induced by 1 mM IPTG for 4 hrs before receiving 1 mg/ml of benzoic acid, vanillic acid, or ferulic acid.
Samples of approximately 2 mL were removed at various time intervals, sample pH was adjusted to pH 2.0 with 6N HCl, and samples were extracted with 1 ml ethyl acetate, and centrifuged for 2 min at 1,000×g. Organic phases were removed and used to spot silica gel GF254 TLC plates for analysis, and comparison with authentic standards of benzaldehyde, vanillin and coniferaldehyde. For metabolite isolation, reactions were stopped by adjustment of mixtures to pH 2.0 with 6N HCl, and extracted three times with half-volumes of ethyl acetate. After removal of solvent by rotary evaporation, reduction products were purified by preparative TLC for analysis and comparison with authentic standards.

Molecule	Km [1]	in vivo transformation by whole cells [2]	further results
Nc1ncnc2c1ncn2[C@@H]1O[C@H](COP(=O)(O)OP(=O)(O)OP(=O)(O)O)[C@@H](O)[C@H]1O [ATP]	69 ± 6.6 µM	–	–
NC(=O)C1=CN([C@@H]2O[C@H](COP(=O)(O)OP(=O)(O)OC[C@H]3O[C@@H](n4cnc5c(N)ncnc54)[C@H](OP(=O)(O)O)[C@@H]3O)[C@@H](O)[C@H]2O)C=CC1 [NADPH]	57 ± 3.6 µM	–	–
O=C(O)c1ccccc1 [benzoate, benzoic acid]	–	quickly converted to benzyl alcohol	–
COc1cc(/C=C/C=O)ccc1O [coniferyl aldehyde]	–	converted to their corresponding alcohols	–
COc1cc(C=O)ccc1O [vanillin]	–	converted to their corresponding alcohols	–
HAT-CAR: HAT-tagged recombinant Nocardia carboxylic acid reductase fusion protein expressed in E. coli from pHAT-305 (protein, left off: small tags and cut ends) AVDSPDERLQRRIAQLFAEDEQVKAARPLEAVSAAVSAPGMRLAQIAATVMAGYADRPAAGQRAFELNTDDATGRTSLRLLPRFETITYRELWQRVGEVAAAWHHDPENPLRAGDFVALLGFTSIDYATLDLADIHLGAVTVPLQASAAVSQLIAILTETSPRLLASTPEHLDAAVECLLAGTTPERLVVFDYHPEDDDQRAAFESARRRLADAGSSVIVETLDAVRARGRDLPAAPLFVPDTDDDPLALLIYTSGSTGTPKGAMYTNRLAATMWQGNSMLQGNSQRVGINLNYMPMSHIAGRISLFGVLARGGTAYFAAKSDMSTLFEDIGLVRPTEIFFVPRVCDMVFQRYQSELDRRSVAGADLDTLDREVKADLRQNYLGGRFLVAVVGSAPLAAEMKTFMESVLDLPLHDGYGSTEAGASVLLDNQIQRPPVLDYKLVDVPELGYFRTDRPHPRGELLLKAETTIPGYYKRPEVTAEIFDEDGFYKTGDIVAELEHDRLVYVDRRNNVLKLSQGEFVTVAHLEAVFASSPLIRQIFIYGSSERSYLLAVIVPTDDALRGRDTATLKSALAESIQRIAKDANLQPYEIPRDFLIETEPFTIANGLLSGIAKLLRPNLKERYGAQLEQMYTDLATGQADELLALRREAADLPVLETVSRAAKAMLGVASADMRPDAHFTDLGGDSLSALSFSNLLHEIFGVEVPVGVVVSPANELRDLANYIEAERNSGAKRPTFTSVHGGGSEIRAADLTLDKFIDARTLAAADSIPHAPVPAQTVLLTGANGYLGRFLCLEWLERLDKTGGTLICVVRGSDAAAARKRLDSAFDSGDPGLLEHYQQLAARTLEVLAGDIGDPNLGLDDATWQRLAETVDLIVHPAALVNHVLPYTQLFGPNVVGTAEIVRLAITARRKPVTYLSTVGVADQVDPAEYQEDSDVREMSAVRVVRESYANGYGNSKWAGEVLLREAHDLCGLPVAVFRSDMILAHSRYAGQLNVQDVFTRLILSLVATGIAPYSFYRTDADGNRQRAHYDGLPADFTAAAITALGIQATEGFRTYDVLNPYDDGISLDEFVDWLVESGHPIQRITDYSDWFHRFETAIRALPEKQRQASVLPLLDAYRNPCPAVRGAILPAKEFQAAVQTAKIGPEQDIPHLSAPLIDKYVSDLELLQLL	–	–	Specific activity ([1]; purification step: Crude extract): 0.009 U/mg; Specific activity ([1]; purification step: DEAE Sepharose): 0.09 U/mg; Specific activity ([1]; purification step: Talon Matrix): 0.066 U/mg; specific CAR activity ([1]; purified HAT-CAR): 0.11 μmol.min^−1.mg-^−1 protein; Vmax ([1]; purified recombinant HAT-CAR): 0.135±0.004 μmol.min^−1.mg^−1 protein
